Source: patent EP4806899A1, “FUSED RING DERIVATIVE, PREPARATION METHOD THEREFOR AND USE THEREOF IN MEDICINE” (Shanghai Qilu Pharmaceutical Research and Development …, priority 2023, dated 2025)

Key:
human CYP11B2 enzyme = target: T1, human CYP11B2 enzyme (Homo sapiens, UniProt P19099); experiment: Enzyme inhibition activity assay in G402 cells stably expressing human CYP11B2 (aldosterone production from 11-DOC, LC/MS); type: cell-based; conditions: 1 µM 11-DOC, 16 hours, aldosterone detected
T1 construct: the ORF of human CYP11B1 or CYP11B2 were transfected into G402 cells; expressed in transfected cells
T1 sequence (P19099 25-503): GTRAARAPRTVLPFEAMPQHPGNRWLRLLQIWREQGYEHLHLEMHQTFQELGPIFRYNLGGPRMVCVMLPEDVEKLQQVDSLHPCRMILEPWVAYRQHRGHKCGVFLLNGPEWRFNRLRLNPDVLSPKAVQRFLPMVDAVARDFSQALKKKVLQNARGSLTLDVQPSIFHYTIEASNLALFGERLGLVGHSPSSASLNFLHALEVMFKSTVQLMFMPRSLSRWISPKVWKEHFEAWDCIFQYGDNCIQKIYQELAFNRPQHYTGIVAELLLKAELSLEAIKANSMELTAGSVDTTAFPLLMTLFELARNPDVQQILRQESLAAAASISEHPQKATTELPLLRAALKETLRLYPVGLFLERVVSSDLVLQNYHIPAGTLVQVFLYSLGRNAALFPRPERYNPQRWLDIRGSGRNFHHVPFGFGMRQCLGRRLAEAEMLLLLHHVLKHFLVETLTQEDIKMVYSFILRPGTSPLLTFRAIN
Procedure, shortened: (§1)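 G402 cells stably expressing human CYP11B2 or CYP11B1, preincubated 1 h with inhibitor in DMEM/F12 plus 2.5% charcoal-stripped FCS, then 16 h with 1 µM 11-DOC or 1 µM 11-DC. Aldosterone or cortisol quantified by LC/MS; IC50 from four-parameter logistic fit versus uninhibited control.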

human CYP11B1 enzyme = target: T2, human CYP11B1 enzyme (Homo sapiens, UniProt P15538); experiment: Enzyme inhibition activity assay in G402 cells stably expressing human CYP11B1 (cortisol production from 11-DC, LC/MS); type: cell-based; conditions: 1 µM 11-DC, 16 hours, cortisol detected
T2 construct: the ORF of human CYP11B1 or CYP11B2 were transfected into G402 cells; expressed in transfected cells
T2 sequence (P15538 25-503): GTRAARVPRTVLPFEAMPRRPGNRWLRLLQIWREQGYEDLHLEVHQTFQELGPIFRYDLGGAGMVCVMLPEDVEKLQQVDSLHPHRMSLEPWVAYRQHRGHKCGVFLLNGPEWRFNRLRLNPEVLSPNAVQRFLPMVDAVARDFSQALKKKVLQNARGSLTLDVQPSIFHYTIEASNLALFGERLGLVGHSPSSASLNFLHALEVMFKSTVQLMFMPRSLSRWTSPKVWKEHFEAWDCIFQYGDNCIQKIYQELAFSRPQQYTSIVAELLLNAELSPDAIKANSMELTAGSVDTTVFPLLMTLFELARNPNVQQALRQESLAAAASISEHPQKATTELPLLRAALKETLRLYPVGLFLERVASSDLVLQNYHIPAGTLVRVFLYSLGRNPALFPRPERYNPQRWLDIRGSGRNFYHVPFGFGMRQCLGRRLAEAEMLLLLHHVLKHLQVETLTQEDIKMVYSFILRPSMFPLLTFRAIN
Procedure, shortened: as §1

in vivo = conditions: rat, in vivo, po, 10 mg/kg
Description: Mice and rats were used as test animals to study the pharmacokinetic behavior of the compounds of the present disclosure in plasma following gavage administration (P.O.). Plasma samples were collected at specific time points, compound concentrations in plasma were detected by LC-MS/MS, and pharmacokinetic parameters were calculated to evaluate the pharmacokinetics.
• Mice, CD-1, male, Zhejiang Vital River Laboratory Animal Technology Co., Ltd. • Rats, Sprague-Dawley, male, Zhejiang Vital River Laboratory Animal Technology Co., Ltd., Shanghai Jihui Experimental Animal Breeding Co., Ltd.
After administration to mice and rats, venous blood samples of 0.03 mL and 0.2 mL, respectively, were collected at 0.0833 (IV), 0.25, 0.5, 1, 2, 4, 8, and 24 hours and placed in EDTA-K2 test tubes. Plasma was separated by centrifugation at 4 °C, 4000 g for 5 minutes and stored at -80 °C.
• 1) 50 µL of plasma sample was precipitated by adding 200 µL of acetonitrile, vortex mixed, and centrifuged for 15 minutes. • 2) The processed supernatant was diluted with water and analyzed by LC/MS/MS to determine the concentration of the test compound.
Pharmacokinetic parameters were calculated using WinNonlin 8.3. […] Cmax represents the maximum plasma concentration, T1/2 represents the terminal elimination half-life, MRTInf represents the mean residence time, and AUC represents the area under the plasma concentration-time curve.

[1] = Pharmacokinetic determination in mice after gavage administration (P.O.); type: in vivo; conditions: male, CD-1, mouse, po, 10 mg/kg, plasma

Row | IC50 (human CYP11B2 enzyme) | IC50 (human CYP11B1 enzyme) | AUC(0-t) at 24 h (in vivo) | Cmax (in vivo) | MRT inf (in vivo) | half-life (in vivo) | Cmax [1] | AUC(0-t) ([1]; read-out: AUC0-24) | SMILES
1 | 12.3 nM | 3680 nM | 190 µM·h | 22.7 µM | 5.3 h | 3.47 h |  |  | CCC(=O)N[C@@H]1CCOc2c(-c3ccc4c(c3)CCC(=O)N4C)cncc21 [Compound A02-P2]
2 | 11.1 nM | 2110 nM |  |  |  |  | 9.07 µM | 136 µM·h | [2H]C([2H])([2H])OC(=O)N[C@@H]1CCOc2c(-c3cc(F)c4c(ccc(=O)n4C)c3)cncc21 [Compound A50]
